Laboratory results published in US20230339970A1, “CASEIN KINASE 1 DELTA MODULATORS” (priority 2020, published 2023).

Assays:
[1] = target: T1, human recombinant GST cleaved CSNK1D (Homo sapiens, UniProt P48730); test: Purified Enzyme Assay (ADP-Glo CSNK1D Kinase Assay); type: biochemical; conditions: 2 nM CSNK1D; peptide substrate 150 μM; ATP 20 μM; 45 minutes at room temperature
T1 construct: GST (cleaved yes); purchased University of Dundee clone DU 19064
Procedure: In this assay, CSNK1D phosphorylates a substrate peptide PLSRTL-pS-VASLPGL in the presence of ATP. […] This assay monitors CSNK1D kinase activity by measuring the amount of ADP produced in the assay.
The substrate mix is added to each well of a low volume, 384-well, white opaque plate. Test compounds were diluted in HBSS and added in a dose-response to the plate.
The total volume of each reaction is 5 ul (2 μL of substrate mix, 1 μL of diluted compounds, and 2 μL of human recombinant CSNK1D). The plates are incubated for 45 minutes at room temperature.
ADP was quantified using the ADP-Glo™ Kinase Assay. ADP-Glo Reagent (5 μL) was added to each well. After a 1 hour incubation at room temperature, Kinase Detection Reagent (10 μL) was added to each well and incubated for 30 minutes. […] The raw data from the Envision is used to calculate percent activity.

human CSNK1D = target: T2, human CSNK1D (Homo sapiens, UniProt P48730); test: Whole Cell nBRET CSNK1D Binding Assay; conditions: living CHO cells stably expressing human CSNK1D tagged with nanoluciferase; NanoBret tracer 130 nM; 2 hours at 37 C
T2 construct: expressed in transfected cells
T2 sequence (P48730 whole entry): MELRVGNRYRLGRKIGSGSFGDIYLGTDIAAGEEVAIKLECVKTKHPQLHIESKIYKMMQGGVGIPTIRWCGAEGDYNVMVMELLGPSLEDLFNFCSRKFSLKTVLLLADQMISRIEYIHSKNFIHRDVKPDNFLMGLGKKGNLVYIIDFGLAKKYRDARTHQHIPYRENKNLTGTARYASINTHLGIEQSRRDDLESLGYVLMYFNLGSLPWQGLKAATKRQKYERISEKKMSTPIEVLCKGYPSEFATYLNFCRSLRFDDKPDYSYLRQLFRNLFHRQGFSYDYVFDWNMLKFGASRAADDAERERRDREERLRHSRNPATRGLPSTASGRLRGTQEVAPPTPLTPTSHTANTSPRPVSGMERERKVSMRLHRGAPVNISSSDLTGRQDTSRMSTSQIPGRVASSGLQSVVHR

T1 sequence (P48730 whole entry): as above

| Compound | IC50 [1] [nM] | IC50 (human CSNK1D) [nM] |
| --- | --- | --- |
| Fc1cnc(-c2nn3c(c2-c2ccnc4[nH]ncc24)OCCC3)c(F)c1 [Example 188, 2-(3,5-Difluoro-2-pyridyl)-3-(1H-pyrazolo[3,4-b]pyridin-4-yl)-6,7-dihydro-5H-pyrazolo[5,1-b][1,3]oxazine] | 12 | 139 |
| CC1(C)COc2c(-c3ccnc4cc[nH]c34)c(-c3ccc(F)cc3)nn2C1 [Example 448, 2-(4-Fluorophenyl)-6,6-dimethyl-3-(1H-pyrrolo[3,2-b]pyridin-7-yl)-5,7-dihydropyrazolo[5,1-b][1,3]oxazine] | 28 | 196 |
| Cc1n[nH]c2nccc(-c3c(-c4ccc(F)cn4)nn4c3CO[C@@](C)(C(F)(F)F)C4)c12 (single isomer, unassigned) [Example 418, (*R)-2-(5-Fluoropyridin-2-yl)-6-methyl-3-(3-methyl-1H-pyrazolo[3,4-b]pyridin-4-yl)-6-(trifluoromethyl)-6,7-dihydro-4H-pyrazolo[5,1-c][1,4]oxazine] | 16 | 124 |
| CC1(C)Cn2nc(-c3ccc(F)cn3)c(-c3ccnc4[nH]ccc34)c2CO1 [Example 147, 2-(5-Fluoropyridin-2-yl)-6,6-dimethyl-3-(1H-pyrrolo[2,3-b]pyridin-4-yl)-6,7-dihydro-4H-pyrazolo[5,1-c][1,4]oxazine] | 1 | 11 |
| CC1(C)Cn2nc(-c3ccc(F)cn3)c(-c3ccn4ncnc4c3)c2CO1 [Example 385, 3-([1,2,4]Triazolo[1,5-a]pyridin-7-yl)-2-(5-fluoropyridin-2-yl)-6,6-dimethyl-6,7-dihydro-4H-pyrazolo[5,1-c][1,4]oxazine] | 50 | 1570 |
| Cc1cc(-c2c(-c3ccc(F)cn3)nn3c2CCC2CC23)c2cn[nH]c2n1 (racemic) [Example 57, (Racemic) 2-(5-Fluoropyridin-2-yl)-3-(6-methyl-1H-pyrazolo[3,4-b]pyridin-4-yl)-5,5a,6,6a-tetrahydro-4H-cyclopropa[e]pyrazolo[1,5-a]pyridine] | 6 | 57 |
| Fc1ccc(-c2nn3c(c2-c2ccnc4[nH]ncc24)CCC2(C3)CC2(F)F)nc1 (single isomer, unassigned) [Example 328, (*R)-2,2-Difluoro-2′-(5-fluoropyridin-2-yl)-3′-(1H-pyrazolo[3,4-b]pyridin-4-yl)-4′,5′-dihydro-7′H-spiro[cyclopropane-1,6′-pyrazolo[1,5-a]pyridine]] | 1 | 8 |
| CC1(C)Cn2nc(-c3ccc(F)cn3)c(-c3ccnc(NC(=O)C4CC4)c3)c2CO1 [Example 134, N-(4-(2-(5-Fluoropyridin-2-yl)-6,6-dimethyl-6,7-dihydro-4H-pyrazolo[5,1-c][1,4]oxazin-3-yl)pyridin-2-yl)cyclopropanecarboxamide] | 1 | 7 |
| Fc1ccc(-c2nn3c(c2-c2ccncc2)COCC3)nc1 [Example 74, 2-(5-Fluoro-2-pyridyl)-3-(4-pyridyl)-6,7-dihydro-4H-pyrazolo[5,1-c][1,4]oxazine] | 205 | 2410 |
| Cc1n[nH]c2nccc(-c3c(-c4ccc(F)cn4)nn4c3COC(C)(C(F)(F)F)C4)c12 (single isomer, unassigned) [Example 419, (*S)-2-(5-Fluoropyridin-2-yl)-6-methyl-3-(3-methyl-1H-pyrazolo[3,4-b]pyridin-4-yl)-6-(trifluoromethyl)-6,7-dihydro-4H-pyrazolo[5,1-c][1,4]oxazine] | 235 | > 10000 |
| Cc1cc(-c2c(-c3ccc(F)cn3)nn3c2C[C@@]2(C3)CC2(F)F)c2cn[nH]c2n1 (single isomer, unassigned) [Example 260, (*S)-1′,1′-Difluoro-2-(5-fluoro-2-pyridyl)-3-(6-methyl-1H-pyrazolo[3,4-b]pyridin-4-yl)spiro[4,6-dihydropyrrolo[1,2-b]pyrazole-5,2′-cyclopropane]] | 3 | 107 |
| Cc1cc(-c2c(-c3ccc(F)cc3)nn3c2[C@@H]2C[C@@H]2C3)c2cn[nH]c2n1 (relative stereo) [Example 276, (3b*R,4a*S)-2-(4-Fluorophenyl)-3-(6-methyl-1H-pyrazolo[3,4-b]pyridin-4-yl)-3b,4,4a,5-tetrahydrocyclopropa[3,4]pyrrolo[1,2-b]pyrazole] | 1 | 6 |
| C[C@@H]1C[C@@H](C)n2nc(-c3ccc(F)cn3)c(-c3ccnc4[nH]ncc34)c2O1 (single isomer, unassigned) [Example 204, (5*R,7*R)-2-(S-Fluoropyridin-2-yl)-5,7-dimethyl-3-(1H-pyrazolo[3,4-b]pyridin-4-yl)-6,7-dihydro-5H-pyrazolo[5,1-b][1,3]oxazine] | 13 | 305 |
| Cc1cc(-c2c(-c3ccc(F)cc3)nn3c2CCC(F)(F)C3)c2cn[nH]c2n1 [Example 43, 4-[6,6-Difluoro-2-(4-fluorophenyl)-5,7-dihydro-4H-pyrazolo[1,5-a]pyridin-3-yl]-6-methyl-1H-pyrazolo[3,4-b]pyridine] | 2 | 12 |
| CC1(C)Cn2nc(-c3ccc(F)cn3)c(-c3cc(C(F)F)nc4[nH]ncc34)c2CO1 [Example 390, 3-[6-(Difluoromethyl)-1H-pyrazolo[3,4-b]pyridin-4-yl]-2-(5-fluoro-2-pyridyl)-6,6-dimethyl-4,7-dihydropyrazolo[5,1-c][1,4]oxazine] | 6 | 141 |
| c1csc(-c2nn3c(c2-c2ccnc4[nH]ncc24)CCCC3)n1 [Example 29, 2-(3-(1H-Pyrazolo[3,4-b]pyridin-4-yl)-4,5,6,7-tetrahydropyrazolo[1,5-a]pyridin-2-yl)thiazole] | 35 | 1200 |
| Cc1cnn2ccc(-c3c(-c4ccc(F)cn4)nn4c3COC(C)(C)C4)cc12 [Example 383, 2-(5-Fluoro-2-pyridyl)-6,6-dimethyl-3-(3-methylpyrazolo[1,5-a]pyridin-5-yl)-4,7-dihydropyrazolo[5,1-c][1,4]oxazine] | 20 | 1040 |
| CCC(=O)Nc1cc(-c2c(-c3ccc(F)cc3)nn3c2OCC2(CC2)C3)ccn1 [Example 455, N-(4-(2′-(4-Fluorophenyl)-5′H,7′H-spiro[cyclopropane-1,6′-pyrazolo[5,1-b][1,3]oxazin]-3′-yl)pyridin-2-yl)propionamide] | 1 | 1 |
| CC1(CC2COC2)CCc2c(-c3ccnc4[nH]ncc34)c(-c3ccc(F)cn3)nn2C1 (single isomer, unassigned) [Example 321, (*S)-4-(2-(5-Fluoropyridin-2-yl)-6-methyl-6-(oxetan-3-ylmethyl)-4,5,6,7-tetrahydropyrazolo[1,5-a]pyridin-3-yl)-1H-pyrazolo[3,4-b]pyridine] | – | 37 |
| Fc1ccc(-c2nn3c(c2-c2ccnc4[nH]ncc24)COC(C(F)(F)F)C3)cc1 (stereo not drawn) [Example 99, 2-(4-Fluorophenyl)-3-(1H-pyrazolo[3,4-b]pyridin-4-yl)-6-(trifluoromethyl)-6,7-dihydro-4H-pyrazolo[5,1-c][1,4]oxazine] | – | 54 |
| FCC1Cn2nc(-c3ccc(F)cc3)c(-c3cnc4[nH]ncc4c3)c2CO1 (stereo not drawn) [Example 103, 6-(Fluoromethyl)-2-(4-fluorophenyl)-3-(1H-pyrazolo[3,4-b]pyridin-5-yl)-6,7-dihydro-4H-pyrazolo[5,1-c][1,4]oxazine] | – | 15 |
